The record followed here is patent publication US8389724B2, “Crystalline salt forms of a 5,6,7,8-tetrahydro-1,2,4-triazolo[4,3-a]pyrazine derivative” (Corporacion Medichem, S.L., priority 2008, dated 2013).

Where a name gives a salt, the structure may show the parent alone. Read-outs that look alike come from different tables or passages of the source.

Series [1] is described as follows: Stability studies of sitagliptin salts (10 months storage; HPLC, XRD, visual inspection). The class given is physicochemical. The settings on record: for Purity (HPLC) 10 months later / Aspect/Colour 10 months later / XRD analysis 10 months later: stored 10 months at room temperature, normal pressure, ambient atmosphere; for Aspect/Colour 10 months later: visual inspection; for Stability in terms of polymorphic form: after ten months of storage; for XRD analysis 10 months later: initial XRD Form I. Here is the method: The XRD diffractograms were obtained using a RX SIEMENS D5000 diffractometer with a vertical goniometer, a copper anodic tube, and radiation CuKα, λ=1.54056.
Mobile phase A was a mixture of methanol and 5 mM dibasic sodium phosphate buffer, pH=7.0 (70:30, v/v). The buffer was prepared by dissolving 0.217 g of dibasic sodium phosphate in 300 mL of water and adjusting the pH of the solution to 7.0±0.1 with phosphoric acid, and filtered through a 0.22 μm nylon membrane under vacuum. Mobile phase B was methanol.
The following gradient was used: […]
The samples were analyzed after 10 months by HPLC, XRD, and visual inspection.

For series [2] the following is noted: room temperature.
Where [3] appears, read: listed as sitagliptin ethanedisulfonate Form I.
[4] abbreviates: listed as sitagliptin galactarate Form I.

Take `NC(CC(=O)N1CCn2c(nnc2C(F)(F)F)C1)Cc1cc(F)c(F)cc1F.O=C(O)C(O)C(O)C(O)C(O)CO` [D-Gluconate, sitagliptin D-gluconate]: in series [1], the “Purity (HPLC) 10 months later” value is on record as 96.29% and the “Aspect/Colour 10 months later” value was “beige”.
With `N[C@@H](CC(=O)N1CCn2c(nnc2C(F)(F)F)C1)Cc1cc(F)c(F)cc1F.O=S(=O)(O)CCS(=O)(=O)O` [Ethane-disulfonate, sitagliptin ethanedisulfonate], in series [2], the “Descriptive term (solubility in water)” value is recorded as “Freely soluble”. Moreover, the “Descriptive term (solubility in water)” value in series [2] (setting [3]) was “freely soluble”. For the same compound, in series [1], the “Stability in terms of polymorphic form” value was “highly stable”, the “Purity (HPLC) 10 months later” value is 99.83%, the “XRD analysis 10 months later” value is given as “Form I” and the “Aspect/Colour 10 months later” value is reported as “off-white”. Also, the “Purity (HPLC) 10 months later” value in series [1] (setting [3]) was “higher than 99.8%”.
`N[C@@H](CC(=O)N1CCn2c(nnc2C(F)(F)F)C1)Cc1cc(F)c(F)cc1F.O=C(O)[C@@H](O)[C@H](O)[C@H](O)[C@@H](O)C(=O)O` [Galactarate, sitagliptin galactarate]: in series [2], the “Descriptive term (solubility in water)” value was “Sparingly soluble”. Also, the “Descriptive term (solubility in water)” value in series [2] (setting [4]) was “sparingly soluble”. In series [1], the “Stability in terms of polymorphic form” value is given as “highly stable”, the “Purity (HPLC) 10 months later” value amounted to 99.15%, the “XRD analysis 10 months later” value is listed as “Form I” and the “Aspect/Colour 10 months later” value is listed as “off-white”. Also, the “Purity (HPLC) 10 months later” value in series [1] (setting [4]) is on record as “higher than 99.1%”.
Take `N[C@@H](CC(=O)N1CCn2c(nnc2C(F)(F)F)C1)Cc1cc(F)c(F)cc1F` [Hydrobromide, sitagliptin hydrobromide]: in series [1], the “Purity (HPLC) 10 months later” value is 98.92%, the “XRD analysis 10 months later” value is on record as “Form I” and the “Aspect/Colour 10 months later” value is “off-white”.
For `N[C@@H](CC(=O)N1CCn2c(nnc2C(F)(F)F)C1)Cc1cc(F)c(F)cc1F.N[C@@H](CC(=O)O)C(=O)O` [L-aspartate, sitagliptin L-aspartate], in series [1], the “Purity (HPLC) 10 months later” value amounted to 97.14% and the “Aspect/Colour 10 months later” value is reported as “white”.
Turning to `N#CS.N[C@@H](CC(=O)N1CCn2c(nnc2C(F)(F)F)C1)Cc1cc(F)c(F)cc1F` [Thiocyanate, sitagliptin thiocyanate], in series [1], the “Stability in terms of polymorphic form” value was “highly stable”, the “Purity (HPLC) 10 months later” value was determined as 99.22%, the “XRD analysis 10 months later” value is reported as “Form I” and the “Aspect/Colour 10 months later” value is reported as “light pink”. For the same compound, the “Purity (HPLC) 10 months later” value in series [1] (listed as sitagliptin thiocyanate Form I) is “higher than 99.2%”.
In the case of sitagliptin (S)-pyroglutamate, in series [1], the “Purity (HPLC) 10 months later” value is 98.64% and the “Aspect/Colour 10 months later” value is on record as “off-white”.
On to sitagliptin acetate, for which, in series [1], the “Purity (HPLC) 10 months later” value was 98.90% and the “Aspect/Colour 10 months later” value is reported as “off-white”.
On to sitagliptin hemi-L-malate, for which the “Purity (HPLC) 10 months later” value in series [1] is recorded as 98.91%.
On to sitagliptin oxalate, for which, in series [1], the “Purity (HPLC) 10 months later” value is on record as 95.95%, the “XRD analysis 10 months later” value is on record as “Form I” and the “Aspect/Colour 10 months later” value was “white”.
sitagliptin succinate: in series [1], the “Purity (HPLC) 10 months later” value is on record as 98.88% and the “Aspect/Colour 10 months later” value is recorded as “off-white”.
